Read-outs that look alike come from different tables or passages of the source.
Key:
ubiquitin = ubiquitin (Homo sapiens, UniProt P0CG47); experiment: Intrinsic fluorescence quenching assay of ubiquitin; conditions: 50 µM ubiquitin, 0–500 µM compound, ex 274 nm / em 305 nm; read-out: Kd, dissociation constant upon binding to ubiquitin
Protocol: Intrinsic fluorescence quenching assays were performed as described previously. Briefly, intrinsic fluorescence quenching of ubiquitin by indicated compounds was observed by measuring the excitation and emission wavelength at 274 nm and 305 nm respectively of the mixture of 50 µM purified ubiquitin and 0–500 µM compound. Data were fitted to nonlinear regression curves with the equation described previously. F = −∆ε·[PC] + Fo(3) b = (Po + Co + Kd)(4) c = Po·Co(5) [PC] = [b − (b^2 − 4·c)^1/2]/2(6) where Fo and F are the normalized fluorescence intensity of the mixture of ubiquitin without the compound and with different concentrations of the compound, respectively. ∆ε is a difference in the extinction coefficient of the compound between their free and complex forms. [PC] is the concentration of protein/compound complex. Po and Co are the added concentration of ubiquitin and the compound, respectively in each experiment. Kd is the dissociation constant.

USP5 (Homo sapiens) = experiment: Deubiquitination assay, cleavage of GST-Ubiquitin-HA by USP5 (SDS-PAGE band intensity); type: biochemical
Chain of USP5 (Homo sapiens) (P45974 2-858, other chains not shown): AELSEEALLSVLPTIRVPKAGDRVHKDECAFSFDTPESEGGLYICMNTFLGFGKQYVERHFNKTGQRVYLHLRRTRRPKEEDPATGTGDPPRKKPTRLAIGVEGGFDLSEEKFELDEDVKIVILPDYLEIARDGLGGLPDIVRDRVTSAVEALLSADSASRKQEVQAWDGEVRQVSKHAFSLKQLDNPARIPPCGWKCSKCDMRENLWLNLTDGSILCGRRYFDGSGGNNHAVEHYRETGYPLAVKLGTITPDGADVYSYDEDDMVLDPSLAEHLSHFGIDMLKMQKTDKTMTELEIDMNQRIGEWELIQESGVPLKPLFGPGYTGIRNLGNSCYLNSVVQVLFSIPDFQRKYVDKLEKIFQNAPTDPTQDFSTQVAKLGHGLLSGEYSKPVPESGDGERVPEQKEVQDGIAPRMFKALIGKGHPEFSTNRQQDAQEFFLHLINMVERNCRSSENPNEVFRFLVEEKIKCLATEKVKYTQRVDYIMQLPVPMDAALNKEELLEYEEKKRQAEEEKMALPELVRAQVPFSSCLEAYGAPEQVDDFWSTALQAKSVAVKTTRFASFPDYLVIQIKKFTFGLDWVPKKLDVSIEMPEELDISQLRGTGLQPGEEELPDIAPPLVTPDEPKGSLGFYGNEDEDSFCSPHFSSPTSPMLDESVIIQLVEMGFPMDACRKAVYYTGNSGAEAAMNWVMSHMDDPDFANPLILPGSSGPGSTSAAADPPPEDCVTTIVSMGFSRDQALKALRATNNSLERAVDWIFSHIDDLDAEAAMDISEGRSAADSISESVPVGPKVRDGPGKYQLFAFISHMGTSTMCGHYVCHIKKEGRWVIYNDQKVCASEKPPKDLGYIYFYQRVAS
Protocol: (§1) For in vitro ubiquitination assays, 500 µM of ubiquitin was used for each ubiquitination reaction as described previously, in the absence or presence of 50–500 µM of CR. […] The generation of GST-ubiquitin from GST-Ubiquitin-HA as the mobility shifts were analyzed on 12.5% SDS-PAGE visualized by Coomassie blue staining. Band intensities were quantified by ImageJ [55] and used to generate the IC50 curves (log inhibitor vs. normalized response with variable slope) by GraphPad Prism version 6.0 for Windows (GraphPad Software, San Diego, CA, USA, www.graphpad.com).

H1299 cells [1] = experiment: Dox-induced K48- and K63-polyubiquitination in cells (immunofluorescence staining, Western blot); type: cell-based; conditions: H1299, non-pretreated, 5 µM Dox
Protocol: Figure 6 CR inhibits Dox-induced ubiquitination in the cells. (a) Immunofluorescence staining of H1299 cells treated with or without 5 (+) and 10 (++) μM CR for 12 h followed by addition of Dox to a final concentration of 5 μM, with incubation for 12 h. The cells were subjected to immunofluorescence staining using the antibodies against K48 (αK48) and K63 polyubiquitins (αK63). (b) K48 or K63 polyubiquitin level in Figure 6a was quantified by fluorescence signal. At least seven random regions acquired in confocal images were sampled and normalized against DAPI intensity for quantification. (c) Immunoblots of samples in Figure 6a using the indicated antibodies. […] Statistical significance was calculated by the Student’s t-test (* p < 0.05, ** p < 0.01, *** p < 0.001).
Cells were seeded in the SPL 4 wells cell culture chamber slide 24 h before experiment. […] Subsequently, cells were incubated with primary antibody at 1/200 dilution in blocking buffer overnight and then washed with blocking buffer five times (5 min each) before incubation with fluorescence-conjugated secondary antibody at 1/200 dilution in blocking buffer for 1 h. […] Images acquired in confocal imaging were subjected to fluorescence intensity analysis using ImageJ [55]. Fluorescence signal representing a particular ubiquitin chain level was analyzed and normalized with the intensity of DAPI. […]

H1299 cells [2] = experiment: Dox-induced cell death, colorimetric cell viability, H1299; type: cell-based
Protocol: (§2) Figure 7 CR enhances Dox sensitivity of cancer cells. (a,b) Enhancement of Dox-induced apoptosis of cancer cells by CR treatment. Dox–induced apoptosis of H1299 (a) and HCT116 (b) was quantified by colorimetric cell viability after treating 10 µM CR for 12 h followed by 12h treatment of Dox (0.0–5.0 µM). […] Caspase activity was quantified by luminogenic caspase activity assay. […] All error bars represent the standard deviation from at least four independent experiments. Statistical significance was calculated by the Student’s t-test (** p < 0.01, *** p < 0.001).
(§3) Cell viability assays were performed as described previously. For the caspase assays, the media were removed, and cells were lysed in 200 µL lysis buffer containing 50 µL Caspase Glo 3/7 solution and incubated for 15 min. Results were observed by measuring the luminescence signal using KOMM-Nr (Berthold Technologies, Bad Wildbad, Germany) and normalized with the total protein concentration measured by the Bradford assay. Data were analyzed using GraphPad Prism version 6.0 for Windows with two tail t-test for statistical data analysis […]
(§4) Figure S8. NSC697923 enhances Dox sensitivity of cancer cells. (a, b) Effect of NSC697923 to cancer cells’ viability in Dox treatment . Dox–induced cell death of H1299 ( a) and HCT116 ( b) was quantified by colorimetric cell viability assay after treating 5 µM NSC697923 for 12 h followed by 12h treatment of Dox (0.0 […]
(§5) NSC697923. Caspase activity was quantified by luminogenic caspase activity assay. All error bars represent the standard deviation from at least 4 independent experiments. *, P<0.05; **, P<0.01; ***, P<0.001.

HCT116 cells [3] = experiment: Dox-induced cell death, colorimetric cell viability, HCT116; type: cell-based; conditions: for Effect on Dox-induced cell death, HCT116: 10 µM CR or 5 µM NSC697923 12 h, then Dox 1.25–5.0 μM 12 h
Protocol: as §2
as §3, with “assay.” for “assay. Data were analyzed using GraphPad Prism version 6.0 for Windows with two tail t-test for statistical data analysis”
as §4, §5

UCHL1 (Homo sapiens) = experiment: Deubiquitination assay, cleavage of GST-Ubiquitin-HA by UCHL1 (SDS-PAGE band intensity); type: biochemical
Chain of UCHL1 (Homo sapiens) (P09936 whole entry, other chains not shown): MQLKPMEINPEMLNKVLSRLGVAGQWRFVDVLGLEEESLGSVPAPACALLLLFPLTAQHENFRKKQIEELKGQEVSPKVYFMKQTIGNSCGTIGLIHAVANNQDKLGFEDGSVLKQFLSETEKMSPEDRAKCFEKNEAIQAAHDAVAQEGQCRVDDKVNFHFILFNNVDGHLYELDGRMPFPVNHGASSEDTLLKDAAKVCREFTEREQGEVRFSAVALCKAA
Protocol: as §1

[4] = design: method as in PMID 27613091; conditions: previous study ref 35; cited from earlier work
H1299 cells [5] = experiment: Cytotoxicity, cell viability assay; type: cell-based; conditions: determined by cytotoxicity assays
Protocol: as §3
Figure S7. Cytotoxicity of CR to cancer cells. H1299 cells were cultured in 96 -well plates. CR was added to final concentrations of 0.0 – 50.0 µM, and the cells were incubated for 24 h followed by cell viability assay. All error bars represent the standard deviation from at least 4 independent experiments. Statistical comparisons between groups were determined by Student’s t -test. If p -values are less than 0.05, they are statistically significant . NS, not […]
(1 picture or pasted object on this page, not shown here)

H1299 cells [6] = experiment: Luminogenic caspase activity assay (Caspase Glo 3/7), H1299; type: cell-based; conditions: 10 µM CR or 5 µM NSC697923 with Dox
Protocol: as §2
as §3, with “assay.” for “assay. Data were analyzed using GraphPad Prism version 6.0 for Windows with two tail t-test for statistical data analysis”
as §4
(§6) NSC697923. Caspase activity was quantified by luminogenic caspase activity assay. […]

HCT116 cells [7] = experiment: Luminogenic caspase activity assay (Caspase Glo 3/7), HCT116; type: cell-based; conditions: 10 µM CR or 5 µM NSC697923 with Dox
Protocol: as §2
as §3, with “assay.” for “assay. Data were analyzed using GraphPad Prism version 6.0 for Windows with two tail t-test for statistical data analysis”
as §4, §6

[8] = 0.6 µM USP5, 5 µM GST-Ubiquitin-HA, 0–45 µM compound, read-out: IC50 USP5 (DUB activity)
[9] = 8 µM UCHL1, 5 µM GST-Ubiquitin-HA, 0–45 µM compound, read-out: IC50 UCHL1 (DUB activity)

## Cc1cc(-c2ccc(/N=N/c3c(S(=O)(=O)O)cc4cc(S(=O)(=O)O)cc(N)c4c3O)c(C)c2)ccc1/N=N/c1c(S(=O)(=O)O)cc2cc(S(=O)(=O)O)cc(N)c2c1O [TB, Trypan blue]
ubiquitin
  Kd: 78.1 ± 4.02 µM
USP5 (Homo sapiens); [8]
  IC50: > 45 µM

## COc1cccc2c1C(=O)c1c(O)c3c(c(O)c1C2=O)C[C@@](O)(C(=O)CO)C[C@@H]3O[C@H]1C[C@H](N)[C@H](O)[C@H](C)O1 [Dox, doxorubicin]
H1299 cells [1]
  K48- and K63-polyubiquitination upon Dox alone: enhanced K48- and K63-polyubiquitination
H1299 cells [2]; Dox 1.25 to 5.0 μM, 12 h
  Dox-induced cell death, Dox alone, H1299: proportional to the Dox concentration
HCT116 cells [3]; Dox 1.25 to 5.0 μM, 12 h
  Dox-induced cell death, Dox alone, HCT116: proportional to the Dox concentration

## Nc1ccc2c(O)c(N=Nc3ccc(N=Nc4ccc(N=Nc5cc(S(=O)(=O)O)c6cccc(S(=O)(=O)O)c6c5)c5ccccc45)c4ccc(S(=O)(=O)O)cc34)c(S(=O)(=O)O)cc2c1 [DB71, Direct blue 71]
ubiquitin
  Kd: 20 ± 0.835 µM
USP5 (Homo sapiens); [8]
  IC50: 13.7 ± 2.74 µM
UCHL1 (Homo sapiens); [9]
  IC50: 33.7 ± 4.05 µM

## Cc1cc(-c2ccc(/N=N/c3ccc4c(S(=O)(=O)O)cc(S(=O)(=O)O)c(N)c4c3O)c(C)c2)ccc1/N=N/c1ccc2c(S(=O)(=O)O)cc(S(=O)(=O)O)c(N)c2c1O [EB, Evans blue]
ubiquitin
  Kd: 13 ± 0.689 µM
USP5 (Homo sapiens); [8]
  IC50: 9.33 ± 1.58 µM
UCHL1 (Homo sapiens); [9]
  IC50: 18.1 ± 2.09 µM

## COc1cc(-c2ccc(/N=N/c3c(S(=O)(=O)O)cc4cc(S(=O)(=O)O)cc(N)c4c3O)c(OC)c2)ccc1/N=N/c1c(S(=O)(=O)O)cc2cc(S(=O)(=O)O)cc(N)c2c1O [DB15, Direct blue 15]
ubiquitin
  Kd: 60.3 ± 2.3 µM
USP5 (Homo sapiens); [8]
  IC50: 32.5 ± 5 µM

## COc1cc(-c2ccc(/N=N/c3ccc4c(S(=O)(=O)O)cc(S(=O)(=O)O)c(N)c4c3O)c(OC)c2)ccc1/N=N/c1ccc2c(S(=O)(=O)O)cc(S(=O)(=O)O)c(N)c2c1O [CSB6B, Chicago Sky Blue 6B]
ubiquitin
  Kd: 12 ± 0.678 µM
USP5 (Homo sapiens)
  IC50: 6.52 ± 0.786 µM
UCHL1 (Homo sapiens)
  IC50: 11.2 ± 1.37 µM
[4]
  Cell membrane penetration: not able to penetrate the cell membrane

## Cc1ccc(S(=O)(=O)c2ccc([N+](=O)[O-])o2)cc1 [NSC697923]
H1299 cells [5]
  None-toxicity concentration: 5 µM
H1299 cells [2]; 10 µM CR or 5 µM NSC697923 12 h, then Dox 1.25–5.0 μM 12 h
  Effect on Dox-induced cell death, H1299: significantly enhanced Dox-induced cell death
HCT116 cells [3]
  Effect on Dox-induced cell death, HCT116: only a synergistic effect at low concentrations of Dox
HCT116 cells [3]; listed as NSC967923
  Effect on Dox-induced cell death, HCT116: significantly enhanced Dox-induced cell death
H1299 cells [6]
  Effect on caspase activity of Dox-treated H1299 cells: Enhanced caspase activity
HCT116 cells [7]
  Effect on caspase activity of Dox-treated HCT116 cells: Enhanced caspase activity
